# Paper PMC12118337, “Development of a Peptide Inhibitor Targeting the C‐SH2 Domain of the SHP2 Phosphatase” (Chembiochem, 2025)
# Non-standard residues stand in square brackets, D forms with d. Residues, ends and D or L forms follow the SMILES beside them. pY = N[C@@H](Cc1ccc(OP(=O)(O)O)cc1)C(=O)O
# Experiments:
# SHP2 C‐SH2 domain = target: T1, SHP2 C‐SH2 domain (Homo sapiens, UniProt Q06124); experiment: Isothermal titration calorimetry (ITC), SHP2 C-SH2 domain; format: binding; details: 20 mM Tris-HCl pH 7.6, 150 mM NaCl, 1:1 stoichiometry assumed, one experiment, read-out: K D, C‐SH2 (ITC)
# T1 construct: SHP2 N-SH2 domain (1–105), C-SH2 domain (106–220), PTP domain (224–541) and; His6 (pETM22 vector) (N, cleaved yes); made in house; host or cells: E. coli BL21(DE3)
# T1 sequence (Q06124 106-220): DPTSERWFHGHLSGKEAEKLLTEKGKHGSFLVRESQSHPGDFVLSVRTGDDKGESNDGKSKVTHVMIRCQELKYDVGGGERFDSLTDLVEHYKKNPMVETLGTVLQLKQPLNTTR
# Experimental: (§1) concentration of 100 nM in a final volume of 200 µL. For baseline subtraction, each peptide was added to FP buffer, instead of protein, with a final peptide concentration of 100 nM in a final volume of 200 µL. Samples were mixed gently then 3 x 60 µL of each sample was transferred into triplicate wells in a 96-well plate (OptiPlate-96 F Black; PerkinElmer). The FP was immediately measured on a Synergy H1 Microplate Reader (BioTek) with the excitation and emission monitored at 485 nm and 528 nm, respectively, over 30 minutes. FP values were automatically calculated by the Gen5 3.03 (BioTek) software associated with the microplate reader. Data were analysed in Excel 2016 by subtracting baseline values from FP values at 10 minutes. Data were then further analysed in GraphPad Prism 6 by plotting the baseline subtracted FP values against the protein concentration and fitting the data to a variable slope model of non-linear regression to obtain the KD values. Data are from three independent experiments, each performed in technical triplicates.
# (§2) 5. Isothermal titration calorimetry
# (§3) Isothermal titration calorimetry (ITC) was used to measure the binding of the Ac-ITSM(pTyr) to the SHP2 C-SH2 or N-SH2 domain. […]
# SHP2 N‐SH2 domain = target: T2, SHP2 N‐SH2 domain (Homo sapiens, UniProt Q06124); experiment: Isothermal titration calorimetry (ITC), SHP2 N-SH2 domain; format: binding; details: 20 mM Tris-HCl pH 7.6, 150 mM NaCl, 1:1 stoichiometry assumed, one experiment, read-out: K D, N‐SH2 (ITC)
# T2 construct: SHP2 N-SH2 domain (1–105), C-SH2 domain (106–220), PTP domain (224–541) and; His6 (pETM22 vector) (N, cleaved yes); made in house; host or cells: E. coli BL21(DE3)
# T2 sequence (Q06124 1-105): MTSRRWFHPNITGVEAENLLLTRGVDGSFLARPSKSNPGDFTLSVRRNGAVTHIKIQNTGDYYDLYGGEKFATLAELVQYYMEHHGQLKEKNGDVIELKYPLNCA
# Experimental: as §1, §2, §3
# full‐length SHP2 = target: T3, full‐length SHP2 (Homo sapiens, UniProt Q06124); experiment: DiFMUP phosphatase assay, peptide activation (no activator); format: biochemical; details: 0.5 nM full-length SHP2, no tandem activator, peptide 0.096 nM – 51.2 µM
# T3 construct: 1–525) proteins were prepared; His-SUMO3 (pETM11-SUMO3 vector) (N, cleaved yes); made in house; host or cells: E. coli BL21(DE3)
# T3 sequence (Q06124 1-525): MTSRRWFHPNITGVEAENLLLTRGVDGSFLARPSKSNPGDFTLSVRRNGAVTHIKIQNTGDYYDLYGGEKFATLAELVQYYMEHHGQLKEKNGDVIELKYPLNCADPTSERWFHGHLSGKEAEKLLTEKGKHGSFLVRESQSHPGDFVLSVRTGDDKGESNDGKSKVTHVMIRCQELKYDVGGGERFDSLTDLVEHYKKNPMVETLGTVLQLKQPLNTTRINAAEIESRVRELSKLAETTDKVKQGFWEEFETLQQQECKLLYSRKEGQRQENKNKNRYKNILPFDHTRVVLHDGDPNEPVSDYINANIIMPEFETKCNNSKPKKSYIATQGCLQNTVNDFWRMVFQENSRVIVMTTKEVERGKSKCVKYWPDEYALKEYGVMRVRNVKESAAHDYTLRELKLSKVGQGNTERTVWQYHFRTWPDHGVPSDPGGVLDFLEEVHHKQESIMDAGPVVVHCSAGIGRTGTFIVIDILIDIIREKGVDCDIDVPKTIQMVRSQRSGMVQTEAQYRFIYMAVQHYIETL
# Experimental: 6. DiFMUP phosphatase assays
# SHP2 dephosphorylation of the fluorogenic substrate 6,8-difluoro-4-methylumbiliferyl phosphate (DiFMUP) was measured to evaluate the effect of acetylated peptides on SHP2 activity. Final concentrations of 0.5 nM full-length SHP2, 200 µM DiFMUP (Invitrogen) and 26 nM bisphosphorylated tandem ITIM-[dPEG4]2-ITSM (CASLO ApS) were used, unless stated otherwise, per well in 96-well plates (OptiPlate-96 F Black; PerkinElmer). For peptide activation assays, each well contained 60 µL of reaction buffer (50 mM HEPES pH 7.6, 150 mM NaCl, 1 mM EDTA, 0.05% Tween 20, freshly added 5 mM DTT), 10 µL of SHP2 and 20 µL of the test peptide (0.096 nM – 51.2 µM final concentration). For peptide inhibition assays in the presence of a SHP2 activator, each well contained 40 µL of reaction buffer (50 mM HEPES pH 7.6, 150 mM NaCl, 1 mM EDTA, 0.05% Tween 20, freshly added 5 mM DTT), 10 µL of SHP2 and 40 µL of previously mixed bisphosphorylated tandem ITIM-[dPEG4]2-ITSM activator and test peptide (0.096 nM – 51.2 µM or 0.376 nM – 200 µM final concentration). […] The fluorescence was immediately measured on a Synergy H1 Microplate Reader (BioTek) with the excitation and emission monitored at 358 nm and 452 nm, respectively, over 30 minutes. Data were analysed in Excel 2016 by subtracting background values from emission values and calculating the slope of the emission profiles. […]
structure (smiles),measurement,setting,value
CC[C@H](C)[C@H](NC(=O)[C@@H](NC(=O)[C@H](C)NC(=O)[C@H](Cc1ccc(OP(=O)(O)O)cc1)NC(=O)[C@H](CCC(=O)O)NC(=O)[C@@H](NC(=O)[C@H](CCC(N)=O)NC(=O)[C@H](CCC(=O)O)NC(C)=O)[C@@H](C)O)[C@@H](C)O)C(=O)N[C@H](C(=O)N[C@@H](Cc1ccccc1)C(=O)N1CCC[C@H]1C(N)=O)C(C)C [Ac‐ITSM(pTyr)] (Ac-EQTE[pY]ATIVFP-NH2),Kd,SHP2 C‐SH2 domain,58.8 nM
same,Kd,SHP2 N‐SH2 domain,106 nM
same,SHP2 phosphatase activity with peptide alone (activation),full‐length SHP2,increased
